Experiments:
α7 nAChRs [1] = molecular target: T1, α7 nAChRs (Homo sapiens, UniProt P36544); assay: cell-based; conditions: Choline EC50 ± SEM at TQS-α7 nAChRs
α7 nAChRs [2] = molecular target: T1, α7 nAChRs; assay: cell-based; conditions: Choline EC50 ± SEM at PNU120596-α7 nAChRs

T1 sequence (P36544 23-502): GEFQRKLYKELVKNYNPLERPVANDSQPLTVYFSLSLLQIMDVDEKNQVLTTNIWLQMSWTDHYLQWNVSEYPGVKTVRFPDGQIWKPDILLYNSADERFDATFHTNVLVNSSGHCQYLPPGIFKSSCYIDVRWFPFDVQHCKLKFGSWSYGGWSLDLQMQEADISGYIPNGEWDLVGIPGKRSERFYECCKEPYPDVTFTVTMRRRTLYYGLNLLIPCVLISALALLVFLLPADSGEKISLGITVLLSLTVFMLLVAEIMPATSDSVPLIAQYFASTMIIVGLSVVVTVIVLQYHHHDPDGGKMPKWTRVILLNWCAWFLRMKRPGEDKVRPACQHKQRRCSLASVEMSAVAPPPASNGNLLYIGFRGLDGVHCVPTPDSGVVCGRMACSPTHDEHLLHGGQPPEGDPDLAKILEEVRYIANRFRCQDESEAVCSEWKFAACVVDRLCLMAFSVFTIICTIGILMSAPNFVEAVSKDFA

## C[N+](C)(C)CCO [Choline, reference compound]
α7 nAChRs [1]
  EC50: 9 ± 0.9 µM
α7 nAChRs [2]
  EC50: 3 ± 0.26 µM
